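Each compound was tested at five concentrations against cells in 96-well plates for 48 hours. Abbreviation: GI50, concentration required for 50% inhibition of growth. TGI: total growth inhibition.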
How the values were obtained:
Assay in all cases: inhibition of tumour cell growth, NCI panel, 48 h
786-0 renal = test system: 786-0 renal
A549 NSCLC = test system: A549 NSCLC
ACHN renal = test system: ACHN renal
BT-549 breast = test system: BT-549 breast
CAKI-1 renal = test system: CAKI-1 renal
COLO 205 colon = test system: COLO 205 colon
DU-145 prostate = test system: DU-145 prostate
EKVX NSCLC = test system: EKVX NSCLC
HCC-2998 colon = test system: HCC-2998 colon
HCT-116 colon = test system: HCT-116 colon
HCT-15 colon = test system: HCT-15 colon
HL-60(TB) leukemia = test system: HL-60(TB) leukemia
HOP-62 NSCLC = test system: HOP-62 NSCLC
HOP-92 NSCLC = test system: HOP-92 NSCLC
HS 578T breast = test system: HS 578T breast
IGROV1 ovarian = test system: IGROV1 ovarian
K-562 leukemia = test system: K-562 leukemia
KM12 colon = test system: KM12 colon
LOX IMVI melanoma = test system: LOX IMVI melanoma
M14 melanoma = test system: M14 melanoma
MCF7 breast = test system: MCF7 breast
MDA-MB-231 breast = test system: MDA-MB-231 breast
MDA-MB-435 = test system: MDA-MB-435
NCI-H23 lung = test system: NCI-H23 lung
NCI-H460 lung = test system: NCI-H460 lung

N#Cc1nc2c(S(=O)(=O)c3ccccc3)c(N)n(Cc3ccc(Cl)cc3)c2nc1C#N
GI50 (786-0 renal): 7.08 µM | TGI (786-0 renal): 15.6 µM | GI50 (A549 NSCLC): 12.1 µM | TGI (A549 NSCLC): 41.3 µM | GI50 (ACHN renal): 4.23 µM | TGI (ACHN renal): 13 µM | GI50 (BT-549 breast): 10.8 µM | TGI (BT-549 breast): 41.7 µM | GI50 (CAKI-1 renal): 26.7 µM | TGI (CAKI-1 renal): > 50 µM | GI50 (COLO 205 colon): 17.8 µM | TGI (COLO 205 colon): > 50 µM | GI50 (DU-145 prostate): 15 µM | TGI (DU-145 prostate): > 50 µM | GI50 (EKVX NSCLC): 19.1 µM | TGI (EKVX NSCLC): > 50 µM | GI50 (HCC-2998 colon): 3.6 µM | TGI (HCC-2998 colon): 10.8 µM | GI50 (HCT-116 colon): 17.9 µM | TGI (HCT-116 colon): > 50 µM | GI50 (HCT-15 colon): 24.2 µM | TGI (HCT-15 colon): > 50 µM | GI50 (HL-60(TB) leukemia): 47.3 µM | TGI (HL-60(TB) leukemia): > 50 µM | GI50 (HOP-62 NSCLC): > 50 µM | TGI (HOP-62 NSCLC): > 50 µM | GI50 (HOP-92 NSCLC): 12.3 µM | TGI (HOP-92 NSCLC): 46.2 µM | GI50 (HS 578T breast): 7.08 µM | TGI (HS 578T breast): 23.4 µM | GI50 (IGROV1 ovarian): 9.65 µM | TGI (IGROV1 ovarian): 42.3 µM | GI50 (K-562 leukemia): > 50 µM | TGI (K-562 leukemia): > 50 µM | GI50 (KM12 colon): 17.1 µM | TGI (KM12 colon): > 50 µM | GI50 (LOX IMVI melanoma): 0.932 µM | TGI (LOX IMVI melanoma): 4.17 µM | GI50 (M14 melanoma): 20.9 µM | TGI (M14 melanoma): > 50 µM | GI50 (MCF7 breast): 7.38 µM | TGI (MCF7 breast): > 50 µM | GI50 (MDA-MB-231 breast): 5.08 µM | TGI (MDA-MB-231 breast): 14.9 µM | GI50 (MDA-MB-435): 19.4 µM | TGI (MDA-MB-435): > 50 µM | GI50 (NCI-H23 lung): 6.46 µM | TGI (NCI-H23 lung): 38.6 µM | GI50 (NCI-H460 lung): 10.9 µM | TGI (NCI-H460 lung): > 50 µM

From PubChem BioAssay (NCI)
